One assay addresses T1, KRAS G12D (Homo sapiens, UniProt P01116, G12D).
T1 construct: made in house; host or cells: E. coli, e.g. BL21 (DE3)
The assay is described as follows: HTRF assay, KRAS G12D interaction with SOS1. The format is biochemical. The conditions noted are these: bins <500 nM / 500 nM to 1000 nM, read-out: Inhibition of KRAS G12D (IC50).

Another assay deals with T2, KRAS WT (Homo sapiens, UniProt P01116).
T2 construct: made in house; host or cells: E. coli, e.g. BL21 (DE3)
The assay is described as follows: HTRF assay, wildtype KRAS interaction with SOS1. Type of assay: biochemical. Particulars: bins <500 nM / 500 nM to 1000 nM, read-out: Inhibition of KRAS WT (IC50).

Another assay concerns the target T3, KRAS G12V (Homo sapiens, UniProt P01116, G12V).
T3 construct: made in house; host or cells: E. coli, e.g. BL21 (DE3)
In words: HTRF assay, KRAS G12V interaction with SOS1. The format is biochemical. The conditions noted are these: bins <500 nM / 500 nM to 1000 nM, read-out: Inhibition of KRAS G12V (IC50).

The target of the next assay is T4, KRAS G12S (Homo sapiens, UniProt P01116, G12S).
T4 construct: made in house; host or cells: E. coli, e.g. BL21 (DE3)
T4 sequence (P01116 1-188 isoform P01116-2 G12S): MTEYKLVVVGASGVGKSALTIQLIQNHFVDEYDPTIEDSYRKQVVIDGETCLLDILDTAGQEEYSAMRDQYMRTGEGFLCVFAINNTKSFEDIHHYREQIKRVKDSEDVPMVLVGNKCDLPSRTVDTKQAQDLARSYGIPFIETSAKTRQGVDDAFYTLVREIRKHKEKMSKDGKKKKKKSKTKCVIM
The assay is described as follows: HTRF assay, KRAS G12S interaction with SOS1. Type of assay: biochemical. The conditions noted are these: bins <500 nM / 500 nM to 1000 nM, read-out: Inhibition of KRAS G12S (IC50).

Another assay concerns MiaPaca2 cells. In words: Ras cellular assay, growth of cells with K-Ras G12C mutation. Type of assay: cell-based. The conditions noted are these: Homo sapiens, MIA PaCa-2; cell proliferation assay; bins ≤500 nM / >500 nM; read-out: Inhibition of MiaPaca2 Cells (IC50). The method in brief: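 Anchorage-independent growth: G12C-mutant MIA PaCa-2 plated in soft agar, time-zero plate read the next day when compound was dosed (final DMSO 0.3%). After growth to day 10, MTS-type absorbance at 490/660 nm relative to time zero gave IC50 via four-parameter fitting.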

T3 sequence (P01116 1-188 isoform P01116-2 G12V): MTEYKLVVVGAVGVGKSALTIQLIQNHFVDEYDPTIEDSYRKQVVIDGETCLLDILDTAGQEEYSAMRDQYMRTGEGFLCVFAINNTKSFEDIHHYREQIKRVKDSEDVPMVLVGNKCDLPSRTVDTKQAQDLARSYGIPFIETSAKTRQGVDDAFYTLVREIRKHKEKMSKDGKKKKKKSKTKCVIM
T2 sequence (P01116 1-188 isoform P01116-2): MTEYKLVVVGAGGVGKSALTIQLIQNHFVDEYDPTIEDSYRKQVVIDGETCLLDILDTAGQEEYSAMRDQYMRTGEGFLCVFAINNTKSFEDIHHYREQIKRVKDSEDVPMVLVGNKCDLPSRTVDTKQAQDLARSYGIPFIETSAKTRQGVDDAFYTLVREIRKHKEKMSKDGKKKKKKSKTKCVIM
T1 sequence (P01116 1-188 isoform P01116-2 G12D): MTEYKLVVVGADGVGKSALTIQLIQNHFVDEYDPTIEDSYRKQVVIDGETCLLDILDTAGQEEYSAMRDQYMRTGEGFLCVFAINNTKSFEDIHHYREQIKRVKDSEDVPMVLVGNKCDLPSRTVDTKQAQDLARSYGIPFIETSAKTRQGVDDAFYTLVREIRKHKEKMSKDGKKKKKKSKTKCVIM

For orientation: IC50 means the concentration at which inhibition is half-maximal. For the compound `C[C@@H]1[C@H](N(C)c2nc(OC[C@@]34CCCN3C[C@H](F)C4)nc3c(F)c(-c4ccc(F)c5sc(N)c(C#N)c45)c(Cl)cc23)CCN1C(=O)n1ccnc1C#N` [Compound 176, 1-((2R,3R)-3-((7-(2-amino-3-cyano-7-fluorobenzo[b]thiophen-4-yl)-6-chloro-8-fluoro-2-(((2R,7aS)-2-fluorotetrahydro-1H-pyrrolizin-7a(5H)-yl)methoxy)quinazolin-4-yl)(methyl)amino)-2-methylpyrrolidine-1-carbonyl)-1H-imidazole-2-carbonitrile], the IC50 at KRAS G12D is less than 500 nM; on KRAS WT, less than 500 nM; on KRAS G12V, less than 500 nM; on KRAS G12S, less than 500 nM; with MiaPaca2 cells, not above 500 nM.

For `CCN(c1nc(OC[C@@]23CCCN2C[C@H](F)C3)nc2c(F)c(-c3ccc(F)c4sc(N)c(C#N)c34)ncc12)[C@@H]1CCN(C(=O)n2cnc(Cl)n2)[C@@H]1C` [Compound 177, 2-amino-4-(4-(((2R,3R)-1-(3-chloro-1H-1,2,4-triazole-1-carbonyl)-2-methylpyrrolidin-3-yl)(ethyl)amino)-8-fluoro-2-(((2R,7aS)-2-fluorotetrahydro-1H-pyrrolizin-7a(5H)-yl)methoxy)pyrido[4,3-d]pyrimidin-7-yl)-7-fluorobenzo[b]thiophene-3-carbonitrile], the IC50 was less than 500 nM on KRAS G12D; less than 500 nM on KRAS WT; less than 500 nM on KRAS G12V; less than 500 nM at KRAS G12S; not above 500 nM in the assay on MiaPaca2 cells.

As for `C[C@@H]1[C@H](N(C)c2nc(OC[C@@]34CCCN3C[C@H](F)C4)nc3c(F)c(-c4ccc(F)c5sc(N)c(C#N)c45)c(Cl)cc23)CCN1C(=O)n1ccnc1Cl` [Compound 178, 2-amino-4-(6-chloro-4-(((2R,3R)-1-(2-chloro-1H-imidazole-1-carbonyl)-2-methylpyrrolidin-3-yl)(methyl)amino)-8-fluoro-2-(((2R,7aS)-2-fluorotetrahydro-1H-pyrrolizin-7a(5H)-yl)methoxy)quinazolin-7-yl)-7-fluorobenzo[b]thiophene-3-carbonitrile], the IC50 on KRAS G12D is less than 500 nM; at KRAS WT, less than 500 nM; on KRAS G12V, less than 500 nM; on KRAS G12S, less than 500 nM; with MiaPaca2 cells it was not above 500 nM.

For the compound `CN(c1nc(OC[C@@]23CCCN2C[C@H](F)C3)nc2c(F)c(-c3ccc(F)c4sc(N)c(C#N)c34)c(Cl)cc12)[C@H]1CCN(C(=O)n2cncn2)C1` [Compound 179, 4-(4-(((S)-1-(1H-1,2,4-triazole-1-carbonyl)pyrrolidin-3-yl)(methyl)amino)-6-chloro-8-fluoro-2-(((2R,7aS)-2-fluorotetrahydro-1H-pyrrolizin-7a(5H)-yl)methoxy)quinazolin-7-yl)-2-amino-7-fluorobenzo[b]thiophene-3-carbonitrile], the IC50 at KRAS G12D was less than 500 nM; at KRAS WT it was less than 500 nM; at KRAS G12V, less than 500 nM; at KRAS G12S it was less than 500 nM; with MiaPaca2 cells, not above 500 nM.

For `Cc1ncn(C(=O)N2CC[C@@H](N(C)c3nc(OC[C@@]45CCCN4C[C@H](F)C5)nc4c(F)c(-c5ccc(F)c6sc(N)c(C#N)c56)c(Cl)cc34)[C@H]2C)c1C` [Compound 180, 2-amino-4-(6-chloro-4-(((2R,3R)-1-(4,5-dimethyl-1H-imidazole-1-carbonyl)-2-methylpyrrolidin-3-yl)(methyl)amino)-8-fluoro-2-(((2R,7aS)-2-fluorotetrahydro-1H-pyrrolizin-7a(5H)-yl)methoxy)quinazolin-7-yl)-7-fluorobenzo[b]thiophene-3-carbonitrile], the IC50 at KRAS G12D was less than 500 nM; on KRAS WT, less than 500 nM; on KRAS G12V, less than 500 nM; on KRAS G12S, less than 500 nM; in the assay on MiaPaca2 cells, not above 500 nM.

The record behind these values is US20260217735A1, “HETEROCYCLES AND USES THEREOF” (Kumquat Biosciences Inc., priority 2023, published 2026).
